Laboratory results: publication PMC10564737, “Structure-based design of a phosphotyrosine-masked covalent ligand targeting the E3 ligase SOCS2” (Nature Communications, 2023)
Like-named read-outs stand apart in the source and are kept apart here.

How the values were obtained:
SOCS2 = target: T1, SOCS2 (Homo sapiens, UniProt O14508); experiment: SOCS2 pulldown with biotinylated GHR_pY595 peptide from K562 cell lysates preincubated with compound; type: biochemical
T1 construct: endogenous SOCS2 from K562 lysates; endogenous in cells; host or cells: K562
T1 sequence (O14508 1-198): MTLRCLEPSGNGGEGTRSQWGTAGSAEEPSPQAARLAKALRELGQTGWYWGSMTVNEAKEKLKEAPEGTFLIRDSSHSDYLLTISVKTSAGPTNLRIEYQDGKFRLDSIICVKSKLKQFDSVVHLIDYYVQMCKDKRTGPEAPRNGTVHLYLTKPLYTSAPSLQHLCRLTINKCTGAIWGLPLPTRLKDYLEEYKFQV
Experimental: Pulldown of cellular SOCS2 was abrogated when K562 cells were pre-treated for 6 h with MN714 prior to cell lysis, further evidencing the inhibitor cell permeability and specific target engagement (Fig. 6c).
K562 cells were treated with either DMSO or 10 µM MN714 for 6 h before being lysed. For experiments with MN551, DMSO-treated lysate was used. DMSO-treated K562 lysate (1 mg/ml) was pre-cleared using control agarose beads (Pierce Control Agarose Resin, 26150) which were washed thrice using 50 mM Tris pH 7.4, 150 mM NaCl buffer. […] Unbound peptide was washed off through 3× cycles of buffer wash and spin. Beads were resuspended to a total volume of 100 µl per IP sample. 100 µl beads with immobilized peptides was added to the MN551 lysate tubes. Samples were incubated for 40 min at room temperature. Samples were spun and unbound supernatant was removed. Beads were washed 3× with 0.05% NP40, 50 mM Tris pH 7.4, 150 mM NaCl buffer before being resuspended in 35 µl 1× LDS. Samples were heated for 10 min at 95 °C after which the elute was transferred to a fresh tube. 20 µl of each sample was analyzed by Western Blot (4-12% Bis-Tris gel 180 V, 60 mins) before blotting for SOCS2 (ab109245, 1:1000 dilution) overnight at 4 °C. Uncropped blot images collected with ChemiDoc Touch imaging system (BioRad) operated by Image Lab (v2.4.0.03) and antibody validation provided in Source Data. […]

SBC2 = target: T2, SBC2 (Homo sapiens, UniProt O14508); experiment: Isothermal titration calorimetry (ITC), direct titration; type: binding
T2 construct: SOCS2 (amino acids 32–198); His6 (N, cleaved yes); made in house; host or cells: E. coli BL21(DE3)
Experimental: Experiments were performed with ITC200 instrument (Malvern) in 100 mM HEPES pH 7.5, 50 mM NaCl, 0.5 mM TCEP at 298 K. The ITC titration consisted of 0.4 μl initial injection (discarded during data analysis) followed by 19 of 2 μl injections at 120 s interval between injections. 1 mM of the ligands in 2–4% DMSO were titrated into 100 μM SBC2. […] Binding data was subtracted from a control titration where ligand was titrated into buffer, and fitted using a one-set-of-site binding model to obtain dissociation constant (Kd), binding enthalpy (ΔH), and stoichiometry (N) using MicroCal PEAQ-ITC Analysis Software1.1.0.1262 and MicroCal ITC-ORIGIN Analysis Software 7.0 (Malvern).

[1] = tested on: reduced glutathione (GSH); experiment: Glutathione (GSH) reactivity assay; type: physicochemical; conditions: 5 mM reduced glutathione (GSH) in potassium phosphate buffer; 5 mM GSH, 37 °C, pH 7.4
Experimental: MN551/MN714 (1/10 μM) were incubated at 37 °C with 5 mM GSH in 100 mM potassium phosphate buffer, pH 7.4 (0.1% DMSO). […] Samples were then analyzed with an LC (Shimadzu LC-40)/MS/MS (Triple Quad 6500+). From the mass spectrum, peak area ratios (peak area analyte/peak area of a stable internal standard) were calculated and the percent compound remaining was determined relative to time zero.

K562 cells = experiment: cells; type: cell-based
Experimental: Supplementary Figure 10: GSH kinetic study of compound MN551 in GSH stability assay. A and B.
A plot of unmodified MN551 v/s time. The starting concentrations of MN551 were 1 and 10 µM in A and B respectively. C. Reactivity of MN551 measured against Afatinib and Ibrutinib
Supplementary Figure 11: Cell viability assay to assess cytotoxicity of MN714. (EC50 reported as mean±SEM, technical replicates=3).
(1 picture or pasted object on this page, not shown here)

T2 sequence (Q15370 1-104 partner limits assumed, one chain of several): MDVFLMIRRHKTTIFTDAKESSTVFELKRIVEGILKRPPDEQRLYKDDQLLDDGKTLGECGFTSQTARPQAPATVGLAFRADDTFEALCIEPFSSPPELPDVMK
T2 sequence (Q15369 17-112 partner limits assumed, one chain of several): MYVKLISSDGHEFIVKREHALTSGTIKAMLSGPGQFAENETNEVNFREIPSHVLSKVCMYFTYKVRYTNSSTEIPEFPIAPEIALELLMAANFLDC

Row | Structure (SMILES) | IC50 (SOCS2; K562 cell lysates, mean ± SEM, technical replicates = 2, read-out: IC50 of reduction of SOCS2 pulled down with biotinylated GHR pY595) | IC50 (SOCS2; K562 lysates, version shown in the peer review file, read-out: apparent IC50 of blockade of SOCS2 pull-down) | Ki (SBC2) | Kd (SBC2; ITC KD, direct ITC, 298 K) | half-life [1] | EC50 (K562 cells; Homo sapiens, K562 24hrs, read-out: cell viability EC50) | concentration up to which no significant cytotoxicity was observed (K562 cells; K562 cells)
1 | O=C(CCl)Nc1cccc(CNC(=O)[C@H](Cc2ccc(OP(=O)(O)O)cc2)NC(=O)Cc2ccc(F)cc2)c1 [MN551] | 5.9 ± 2.6 µM | 9 µM | 2.2 µM | 2.18 ± 0.6 µM | > 1.17 h | – | –
2 | CC(C)(C)C(=O)OCOP(=O)(OCOC(=O)C(C)(C)C)Oc1ccc(C[C@H](NC(=O)Cc2ccc(F)cc2)C(=O)NCc2cccc(NC(=O)CCl)c2)cc1 [MN714] | – | – | – | – | – | 11.8 µM | 3000 to 10000 nM
